In data set [1] the target is T1, CYP2B6 (Homo sapiens, UniProt P20813).
T1 sequence (P20813 whole entry): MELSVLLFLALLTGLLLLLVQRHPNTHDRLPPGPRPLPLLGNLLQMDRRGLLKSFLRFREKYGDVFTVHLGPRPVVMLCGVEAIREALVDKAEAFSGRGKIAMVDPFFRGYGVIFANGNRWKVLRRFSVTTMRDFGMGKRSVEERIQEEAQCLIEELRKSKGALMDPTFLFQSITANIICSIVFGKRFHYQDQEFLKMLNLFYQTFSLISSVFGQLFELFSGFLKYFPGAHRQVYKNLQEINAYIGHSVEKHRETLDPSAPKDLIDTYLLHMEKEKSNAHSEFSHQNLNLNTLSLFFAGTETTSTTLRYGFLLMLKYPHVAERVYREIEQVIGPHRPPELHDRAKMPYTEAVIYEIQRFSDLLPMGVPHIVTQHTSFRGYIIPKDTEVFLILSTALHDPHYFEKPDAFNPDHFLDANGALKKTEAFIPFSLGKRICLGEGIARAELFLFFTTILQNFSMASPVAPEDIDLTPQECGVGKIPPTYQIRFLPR
The experiment in a line: Inhibition of CYP2B6 (unknown origin) at 20 uM. It counts as ADME.

The nature of data set [2]: Toxicity in BALB/c mouse allografted with mouse CT26 cells assessed as change in body weight at 75 mg/kg, po administered once a day measured after 14 days. It counts as organism-based. The following applies: in vivo, 336 h, time 14 day.
The nature of data set [3]: AUC (0 to infinity) in BALB/c mouse at 5 mg/kg, po measured upto 24 hrs by LC-MS/MS analysis. It counts as ADME, organism-based. More on the design: dose 5 mg/kg, time < 24 hrs, route po. Conditions: in vivo.
Data set [4] has as its system CT26. In words: Antitumor activity against mouse CT26 cells allografted in BALB/c mouse assessed as median survival period at 75 mg/kg, po administered once a day for 14 days in presence of anti-PD-1 antibody by Kaplan-Meier method (reference value: 15 days). It counts as functional. The following applies: time 14 day.
Data set [5] has as its system CT26. The experiment in a line: Antitumor activity against mouse CT26 cells allografted in BALB/c mouse assessed as median survival period at 75 mg/kg, po administered once a day for 14 days by Kaplan-Meier method (reference value: 15 days). It is filed as functional. The following applies: time 14 day.
Data set [6] can be described thus: Volume of distribution at steady state in BALB/c mouse at 5 mg/kg, po measured upto 24 hrs by LC-MS/MS analysis. It is filed as ADME, organism-based. The following applies: in vivo.
Data set [7] is described as follows: Metabolic stability in human liver microsomes assessed as parent compound remaining at 10 uM measured after 60 mins. It counts as ADME, Microsome. The following applies: read-out: Stability. Background: Microsomes from liver hold many membrane-bound enzymes, among them those of drug oxidation.
Data set [8] is described as follows: Kinetic solubility of compound in simulated intestinal fluid at pH 6.8 measured after 24 hrs by HPLC analysis. The following applies: read-out: Kinetic_solubility. It is filed as physicochemical.
Data set [9] is described as follows: Toxicity in BALB/c mouse allografted with mouse CT26 cells assessed as change in body weight at 75 mg/kg, po administered once a day for 14 days in presence of anti-PD-1 antibody. It is filed as organism-based. Conditions: in vivo, 336 h, time 14 day.
The test system of data set [10] is Panc02. In words: Cytotoxicity against mouse Panc02 cells assessed as reduction in cell viability incubated for 72 hrs by CCK-8 assay. Conditions: Panc02, 72 h.
The test system of data set [11] is EMT6. The experiment in a line: Cytotoxicity against mouse EMT6 cells assessed as reduction in cell viability incubated for 72 hrs by CCK-8 assay. The following applies: EMT6, 72 h.
Data set [12] has as its system 3LL cell line. The experiment in a line: Cytotoxicity against mouse 3LL cells assessed as reduction in cell viability incubated for 72 hrs by CCK-8 assay. In general terms: Formazan colour is commonly taken as a measure of viable cells.
Data set [13] is described as follows: Cytotoxicity against HEK293 cells assessed as reduction in cell viability incubated for 72 hrs by CCK-8 assay. The following applies: human. It is filed as toxicity, cell-based.
The subject of data set [14] is CT26. In words: Cytotoxicity against mouse CT26 cells assessed as reduction in cell viability incubated for 72 hrs by CCK-8 assay. Conditions: CT26, 72 h.
Data set [15] addresses Prostaglandin E2 receptor EP4 subtype (Homo sapiens, UniProt P35408). In words: Antagonist activity at human EP4 receptor transfected in CHO/Galpha16 cells preincubated for 15 mins followed by PGE2 addition by calcium flux assay. It is filed as functional, cell-based. For orientation: Calcium assays in cells follow changes in intracellular calcium, usually with a dye or a luminescent sensor.

≈ marks a conversion by molar mass, not a printed value. A value given as a limit tells only on which side of the number the result lay.

In general, inhibition refers to how much of the control response was suppressed. Low values mean a weak effect, high ones a strong effect. As usually defined, the AUC(0-inf) is the area under the concentration-time curve extrapolated to infinity. Read a high AUC(0-inf) as more exposure. Usually IC50 stands for the midpoint of a concentration-inhibition curve.

Chain of Prostaglandin E2 receptor EP4 subtype (P35408 whole entry): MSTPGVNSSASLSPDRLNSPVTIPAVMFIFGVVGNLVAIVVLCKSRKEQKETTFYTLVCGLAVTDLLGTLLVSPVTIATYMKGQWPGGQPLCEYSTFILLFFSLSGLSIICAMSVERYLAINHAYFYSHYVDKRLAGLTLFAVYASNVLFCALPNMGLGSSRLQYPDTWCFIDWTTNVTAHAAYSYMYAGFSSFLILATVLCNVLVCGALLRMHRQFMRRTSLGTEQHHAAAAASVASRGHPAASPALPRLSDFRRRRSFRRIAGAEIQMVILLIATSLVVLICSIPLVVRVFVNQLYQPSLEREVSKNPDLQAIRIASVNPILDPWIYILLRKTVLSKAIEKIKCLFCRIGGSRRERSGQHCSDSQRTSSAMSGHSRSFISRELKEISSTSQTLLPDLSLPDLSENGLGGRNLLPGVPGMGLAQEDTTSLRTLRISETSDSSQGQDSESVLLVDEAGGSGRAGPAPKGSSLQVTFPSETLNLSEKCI

Compound `O=C(O)c1ccc(CNC(=O)c2c(Cc3ccc(F)cc3)sc3c2CCOC3)cc1` came in with an inhibition at 20 µM in [1] of 78%. The Activity entry in data set [2] and in data set [9] was “Non-Toxic” throughout. The AUC(0-inf) in data set [3] was found to be 2220 ng·h/mL. Further, the MST in [4] turned out to be 41 days; in data set [5], 26 days. This compound also came in with a Vdss in [6] of 21.0327 L/kg. Moreover, the remaining at 1 h, 10 µM in [7] came to 89.8%. The solubility kinetic at 24 h in [8] is greater than 200 µM.

`C[C@H](NC(=O)c1c(Cc2cccc(C(F)(F)F)c2)sc2c1CCOC2)c1ccc(C(=O)O)cc1` yielded an inhibition at 20 µM in [1] of 75%. Moreover, the AUC(0-inf) in data set [3] was determined as 1690 ng·h/mL. The IC50 in data set [10] was greater than 100 µM; in [11], greater than 100 µM; in data set [12] it was greater than 100 µM; in data set [14], greater than 100 µM; in [15] it was 0.0017 µM. For the same compound, the half-maximal inhibitory concentration (IC50) at 72 h in data set [13] was greater than 100 µM. The same compound displayed a Vdss in [6] of 14.5274 L/kg. Also, the remaining at 1 h, 10 µM in data set [7] worked out at 84.6%. The solubility kinetic at 24 h in [8] is 182 µM (≈ 89.1 µg/mL).

The values are drawn from ChEMBL document CHEMBL5154936, “Scaffold Hopping Strategy to Identify Prostanoid EP4 Receptor Antagonists for Cancer Immunotherapy” (J Med Chem, 2022).
